Several values for one entry are separate records, joined by “and”; a condition that tells them apart may be missing. Equal values may be shown once.
Key:
[1] = biological target: T1, Rabbit muscle glycogen phosphorylase a (Oryctolagus cuniculus, UniProt P00489); assay: Glycogen phosphorylase enzyme assay (phosphate release, malachite green); type: biochemical; details: mean of three determinations
T1 construct: purchased Abcam
T1 sequence (P00489 2-843 limits assumed): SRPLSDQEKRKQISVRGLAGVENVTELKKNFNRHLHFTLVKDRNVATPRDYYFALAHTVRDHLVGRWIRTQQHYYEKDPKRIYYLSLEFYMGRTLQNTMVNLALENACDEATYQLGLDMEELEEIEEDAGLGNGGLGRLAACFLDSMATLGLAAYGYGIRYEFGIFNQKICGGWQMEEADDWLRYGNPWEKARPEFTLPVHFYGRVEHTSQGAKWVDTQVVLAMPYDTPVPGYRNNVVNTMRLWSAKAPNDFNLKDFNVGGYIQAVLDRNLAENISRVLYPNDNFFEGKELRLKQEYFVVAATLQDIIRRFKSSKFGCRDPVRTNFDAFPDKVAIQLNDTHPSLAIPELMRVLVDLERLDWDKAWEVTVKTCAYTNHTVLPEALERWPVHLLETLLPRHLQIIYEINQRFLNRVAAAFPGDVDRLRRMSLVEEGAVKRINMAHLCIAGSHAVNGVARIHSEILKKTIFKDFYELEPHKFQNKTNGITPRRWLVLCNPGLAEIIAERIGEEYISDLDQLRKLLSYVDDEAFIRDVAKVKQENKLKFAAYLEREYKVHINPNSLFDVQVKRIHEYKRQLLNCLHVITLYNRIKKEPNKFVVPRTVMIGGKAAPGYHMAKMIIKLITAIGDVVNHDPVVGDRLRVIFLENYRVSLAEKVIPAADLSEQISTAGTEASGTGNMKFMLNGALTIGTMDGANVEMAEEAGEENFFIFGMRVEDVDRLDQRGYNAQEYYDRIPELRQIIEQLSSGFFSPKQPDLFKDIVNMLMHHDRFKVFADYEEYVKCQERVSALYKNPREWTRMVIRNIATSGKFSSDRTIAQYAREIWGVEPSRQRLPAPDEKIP
Method: Rabbit muscle glycogen phosphorylase a (from Abcam, 0.475 mg/ mL) activity was measured in the direction of glycogen synthesis by the release of phosphate from glucose-1-phosphate using a 384-well plate at 22 °C in […] of buffer containing 50 mM Hepes (pH 7.2), 100 mM KCl, 2.5 mM EGTA, 2.5 Mm MgCl2, 0.25 Mm glucose-1-phosphate, and 1 mg/mL glycogen with a 30-min incubation time. Phosphate was measured at 620 nm, 5 minutes after the addition of […] of 1 MHCl containing 10 mg/mL ammonium molybdate and 0.38 mg/mL malachite green. Test compounds were added to the assay in […] of 14% DMSO. Compounds were tested against a deoxynojirimycin hydrochloride (Abcam) standard in 11 point concentration response curve in duplicate on two separate occasions. Data were analyzed using GraphPad Prism v.4.03, GraphPad Software, (La Jolla, CA, USA).
A nonlinear regression (curve fit) analysis with a sigmoidal dose response equation (variable slope) was applied to generate IC50 and hill slope values. […] Compounds were screened with maximal concentrations of […]. The assay was carefully monitored for signs of compound insolubility. The results are presented as mean values from three determinations.

[2] = biological target: α-Glucosidase from Saccharomyces cerevisiae; assay: α-Glucosidase inhibition assay (spectrophotometric, p-nitrophenyl-α-D-glucopyranoside); type: biochemical; details: mean ± spread, triplicate
Method: α-Glucosidase inhibition assay was performed spectrophotometrically. α-Glucosidase from Saccharomyces cerevisiae (Abcam, Cambridge, UK) was dissolved in phosphate buffer (pH 6.8, 50 mM). Test compounds were dissolved in DMSO. In 96-well microtiter plates, 20 µL of test sample, 20 µL of enzyme (20 mU/mL) and 135 µL of buffer were added and incubated for 15 minutes at 37 °C. After incubation, 25 µL of p-nitrophenyl-α-D-glucopyranoside (2 mM, Abcam) was added and change in absorbance was monitored for 20 min at 400 nm. Test compound was replaced by DMSO (10% final) as control. Deoxynojirimycin hydrochloride (Abcam) was used as a standard inhibitor. The assays were done in triplicate. IC50 values were calculated from non-linear regression curve of percentage inhibition versus log compound concentration.

[3] = test system: Sprague-Dawley (SD) rats with streptozocin-induced diabetes; assay: In vivo antidiabetic screening, blood glucose level in STZ-induced diabetic rats; parameters: species or system rat; details: for Blood Glucose Level, Reading 1: 15 h fasting followed by 5-mg meal, before treatment; for Blood Glucose Level, Fasting: after fasting for 15 h, pretreatment; for Blood Glucose Level, Reading 2: second day, after oral treatment 40 mg/100 g body weight followed by 5-mg meal
Method: The compound (7b) was tested on Sprague-Dawley (SD) rats for the effect on the blood glucose level, as described in the experimental Section 3.8, and the results are reported in (Table 2) and (Figure 3). Blood glucose levels were measured after fasting for 15 h (fasting reading), followed by the administration of a 5-mg meal (reading 1). Moreover, a second day reading after treatment with normal saline, acarbose, or (7b) compound blood glucose level (reading 2) followed by a 5-mg meal, was measured. […] In addition, the blood glucose level after 15 h fasting followed by a meal of 5 mg (reading 1) was compared to the blood glucose levels under the same conditions, and following the administration of normal saline, acarbose or compound (7b). For the control non-diabetic non-treated group and the diabetic non- treated group, no significant difference between (readings 1 and 2) was shown. For the group of rats treated with acarbose or compound (7b) one hour before a meal, blood glucose levels decreased from 147 ± 2 to 136 ± 3.28 and 120 ± 0.88 mg/dL to 116 ± 0.57, respectively. […] Twenty male Sprague–Dawley (SD) rats were maintained in an air-conditioned room (25 °C) at a constant humidity (55–60%). All rats were provided with a standard rat diet containing 60% carbohydrate (w/w), 2% fat (w/w), 17.5% protein (w/w), 8% fiber (w/w), and water ad libitum. The experiments were performed in accordance with the internationally accepted standard ethical guidelines for laboratory animal use and care, as described in the European Community guidelines. The Institutional Animal Ethics Committee of Al-Azhar University approved the study protocols (approval No: 409/432, 3/2018). Diabetes was induced in 12 Sprague–Dawley (SD) male rats by a single intraperitoneal injection of 40 mg/kg streptozocin (STZ) dissolved in 0.1 M/L citrate buffer at a pH of 4.5. Three rats were injected with normal saline and vehicle only to serve as negative controls. The remaining diabetic rats (nine) were identified by an increase in blood glucose more than 200 ± 10 mg/dL after one week. Blood glucose levels were measured using One Touch Ultra 2 glucometer (Lifescan inc., Wayne, USA) every week for the following two weeks to confirm the diabetic status. Rats were 6–8 weeks of age and the average weight when starting the experiment was 200 ± 20 g. Twelve rats were randomly assigned to four groups. Group 1: non-diabetic non-treated (control). Group 2: Diabetic non-treated. Group 3: Diabetic and administrated acarbose before meals. Group 4: Diabetic and administrated our new compound before a meal. Briefly; the first group was injected with an IP vehicle only. The other three groups were injected with streptozocin (STZ) and developed diabetes. The second group was diabetic and untreated. The third group was diabetic rats treated with acarbose at 40 mg per 100 g body weight 30 min. before meal using oral tube. The fourth group administrated 40 mg/100 g body weight of the test compound (7b). Rats were fasted over 15 h and blood sugar levels were measured (pretreatment). For each rat, 5 mg standard rat diet was supplied to each rat and blood glucose levels were measured to detect increases after 1 hour. Rats were fed again with the same amount after 8 h. Food was removed to allow animals to fast again for 15 h. On the following day, groups 1 and two were not given any treatment, while group 3 rats were given acarbose (positive control) and group 4 were given the test compound (7b). Blood glucose levels were measured in tail vein blood samples taken from fasting rats (time point 0), then designated groups are fed either acarbose or the test compound, suspended in PBS and delivered using an oral tube. After half an hour, the rats were given five mg. Blood samples were taken after 1 hour. Blood glucose was expected to rise after meal and the effect of the drugs was evaluated according to their abilities to control post-meal excursions.

Compound | IC50 [1] [nM] | melting point [°C] | IC50 [2] | other results
NNC(=O)c1ccccc1NC(=O)c1ccccn1 [Compound 6, N-(2-(Hydrazinecarbonyl)phenyl)picolinamide] | 582 ± 580 | 210 to 212 | – | IC50 ([2]; listed as 7): 416 nM
O=C(Nc1ccccc1C(=O)NCc1ccc(F)cc1)c1ccccn1 [Compound 3c, N-(2-((4-Fluorobenzyl)carbamoyl)phenyl)picolinamide] | 86.4 ± 20 | – | – | –
Cc1ccc(CNC(=O)c2ccccc2NC(=O)c2ccccn2)cc1 [Compound 3e, N-(2-((4-Methylbenzyl)carbamoyl)phenyl)picolinamide] | 262 ± 10 | 275 to 278 | – | –
O=C(Nc1ccccc1C(=O)NCc1ccc(Cl)cc1)c1ccccn1 [Compound 3d, N-(2-((4-Chlorobenzyl)carbamoyl)phenyl)picolinamide] | 177 ± 50 | 233 to 235 | 94.7 nM | –
COC(=O)c1ccccc1NC(=O)c1ccccn1 [Compound 1, Methyl 2-(picolinamido)benzoate] | 541 ± 60 | 210 to 212 | 735 nM and 736 nM | –
C[C@H]1O[C@H](O[C@H]2[C@H](O)[C@@H](O)[C@@H](O[C@H]3[C@H](O)[C@@H](O)C(O)O[C@@H]3CO)O[C@@H]2CO)[C@H](O)[C@@H](O)[C@@H]1N[C@H]1C=C(CO)[C@@H](O)[C@H](O)[C@H]1O (stereo partly shown) [Acarbose, reference compound] | – | – | – | Blood Glucose Level, Reading 1 [3]: 147 ± 2.0 mg/dL; Blood Glucose Level, Reading 1 ([3]; listed as acarbose): 147 ± 2 mg/dL; Blood Glucose Level, Fasting [3]: 204 ± 4.5 mg/dL; Blood Glucose Level, Reading 2 [3]: 136 ± 3.28 mg/dL
O=C(Nc1ccccc1C(=O)NCc1ccccc1)c1ccccn1 [Compound 3a, N-(2-(Benzylcarbamoyl)phenyl)picolinamide] | 150 ± 70 | – | 89.6 nM | –
NS(=O)(=O)c1ccc(NC(=O)c2ccccc2NC(=O)c2ccccn2)cc1 [Compound 5a, N-(2-((4-Sulfamoylphenyl)carbamoyl)phenyl)picolinamide] | – | – | 47.7 nM | –
COc1ccc(CNC(=O)c2ccccc2NC(=O)c2ccccn2)cc1 [Compound 3b, N-(2-((4-Methoxybenzyl)carbamoyl)phenyl)picolinamide] | – | 225 to 227 | 22.3 nM | –
O=C(Nc1ccccc1C(=O)Nc1ccc(S(=O)(=O)Nc2ccccn2)cc1)c1ccccn1 [Compound 5b, N-(2-((4-(N-(Pyridin-2-yl)sulfamoyl)phenyl)carbamoyl)phenyl)picolinamide] | 16.6 | – | 21.2 nM | –
O=C(Nc1ccccc1C(=O)Nc1ccc(S(=O)(=O)Nc2nccs2)cc1)c1ccccn1 [Compound 5c, N-(2-((4-(N-(Thiazol-2-yl)sulfamoyl)phenyl)carbamoyl)phenyl)picolinamide] | – | 217 to 219 | 12.5 ± 10 nM | –
OC[C@H]1NC[C@H](O)[C@@H](O)[C@@H]1O [1-Deoxynojirimycin, reference compound] | 55.6 ± 110 | – | – | –

Continued, in another order:

IC50 [1] [nM] | melting point [°C] | IC50 [2] | Compound | other results
86.4 | 225 to 227 | 231 ± 570 nM | O=C(Nc1ccccc1C(=O)N/N=C/c1ccccn1)c1ccccn1 [Compound 7c, (E)-N-(2-(2-(Pyridin-2-ylmethylene)hydrazine-1-carbonyl)phenyl)picolinamide] | –
208 | 205 to 207 | – | O=C(Nc1ccccc1C(=O)N/N=C/c1ccccc1)c1ccccn1 [Compound 7a, (E)-N-(2-(2-Benzylidenehydrazine-1-carbonyl)phenyl)picolinamide] | –
– | 212 to 214 | 78.4 ± 50 nM | O=C(Nc1ccccc1C(=O)N/N=C/c1ccc(Cl)cc1Cl)c1ccccn1 [Compound 7d, (E)-N-(2-(2-(2,4-Dichlorobenzylidene)hydrazine-1-carbonyl)phenyl)picolinamide] | –
13.7 ± 30 | 215 to 217 | 17.6 nM | O=C(Nc1ccccc1C(=O)N/N=C/c1ccc(O)cc1O)c1ccccn1 [Compound 7b, (E)-N-(2-(2-(2,4-Dihydroxybenzylidene)hydrazine-1-carbonyl)phenyl)picolinamide] | Effect on blood glucose level compared with reference drug ([3]; 40 mg/100 g body weight oral before meal): succeeded in decreasing the blood glucose level of diabetic rats better than the reference oral antidiabetic drug, acarbose; Blood Glucose Level, Reading 1 [3]: 120 ± 0.88 mg/dL; Blood Glucose Level, Fasting [3]: 207 ± 0.88 mg/dL; Blood Glucose Level, Reading 2 [3]: 116 ± 0.57 mg/dL

Source: publication PMC6100603, “Exploring the Dual Inhibitory Activity of Novel Anthranilic Acid Derivatives towards α-Glucosidase and Glycogen Phosphorylase Antidiabetic Targets: Design, In Vitro Enzyme Assay, and Docking Studies” (Molecules : A Journal of Synthetic Chemistry and Natural …, 2018)
